The first experiment relates to Colon 26. Briefly: […] activity evaluated as tumor suppression against colon 26 murine tumor model at a dose 40 mg/kg after intravenous administration. The format is functional, Mus musculus.
Conditions: not given
In turn, `COc1ccc(/C=C\c2cc(OC)c(OC)c(OC)c2)cc1N.Cl` yielded an IR of 73%.

`COc1ccc(-c2sc(C)nc2-c2cc(OC)c(OC)c(OC)c2)cc1N` came in with an IR of 24%.

Take `COc1ccc(-c2sc(N)nc2-c2cc(OC)c(OC)c(OC)c2)cc1N`: the IR was found to be 75%.

Another experiment has as its system Colon 26. Briefly: […] activity evaluated as tumor suppression against colon 26 murine tumor model at a dose 160 mg/kg after intravenous administration.
Conditions: not given
The format is functional, Mus musculus.
On to `COc1ccc(-c2scnc2-c2cc(OC)c(OC)c(OC)c2)cc1N`, for which the IR is 66%.

As for `COc1ccc(-c2nncn2-c2cc(OC)c(OC)c(OC)c2)cc1N`, the IR was 47%.

The subject of a further experiment is Colon 26. Briefly: […] activity evaluated as tumor suppression against colon 26 murine tumor model at a dose 5 mg/kg after intravenous administration. The format is functional, organism-based. On the set-up: dose 5 mg/kg. The following applies: Mus musculus.
The compound CISPLATIN gave an IR of 64%.

In a further experiment the test system is Colon 26. Put plainly: […] activity evaluated as tumor suppression against colon 26 murine tumor model at a dose 160 mg/kg after subcutaneous administration. The experiment is classed as functional, Mus musculus.
Conditions: not given
As to `COc1ccc(-c2nnnn2-c2cc(OC)c(OC)c(OC)c2)cc1N`, the IR is listed as 89%.

The test system of another experiment is Colon 26. Put plainly: In vitro cytotoxicity against colon 26 adenocarcinoma cell line was evaluated. The following applies: Mus musculus. The experiment is classed as functional, cell-based.
As a reminder, the IC50 is the concentration that gives 50% inhibition. Read a low IC50 as greater potency in that assay. The compound `COc1ccc(-c2scnc2-c2cc(OC)c(OC)c(OC)c2)cc1N` returned a 50% inhibitory concentration (IC50) of 0.0145 µM.

Regarding `COc1ccc(/C=C\c2cc(OC)c(OC)c(OC)c2)cc1N.Cl`, the midpoint of inhibition, the IC50, lay at 0.0028 µM.

Turning to `COc1ccc(-c2nncn2-c2cc(OC)c(OC)c(OC)c2)cc1N`, the concentration for half-maximal inhibition (IC50) was determined as 0.84 µM.

In turn, `COc1ccc(-c2sc(C)nc2-c2cc(OC)c(OC)c(OC)c2)cc1N` yielded an IC50 of 2.04 µM.

Take `COc1ccc(-c2nnc(O)n2-c2cc(OC)c(OC)c(OC)c2)cc1N`: the IC50 was more than 3 µM.

The compound `COc1ccc(-c2nnnn2-c2cc(OC)c(OC)c(OC)c2)cc1N` came in with an IC50 of 0.0072 µM.

As to `COc1ccc(-c2sc(N)nc2-c2cc(OC)c(OC)c(OC)c2)cc1N`, half-maximal inhibition (IC50) was put at 0.0575 µM.

On to `COc1ccc(-c2c([Si](C)(C)C)n[nH]c2-c2cc(OC)c(OC)c(OC)c2)cc1N`, for which the IC50 is more than 3 µM.

On to `COc1ccc(-c2nnc(C)n2-c2cc(OC)c(OC)c(OC)c2)cc1N`, for which the IC50 was more than 3 µM.

As for `COc1ccc(-c2nnc(N)n2-c2cc(OC)c(OC)c(OC)c2)cc1N`, the IC50 is more than 3 µM.

Compound `COc1ccc(-c2sc(NN)nc2-c2cc(OC)c(OC)c(OC)c2)cc1N` yielded an IC50 of 0.0211 µM.

Compound `COc1ccc(-c2c[nH]nc2-c2cc(OC)c(OC)c(OC)c2)cc1N` registered a half-inhibitory concentration (IC50) of 0.0084 µM.

Another experiment deals with Tubulin (Bos taurus, UniProt Q6B856+Q862L2+Q862F3). Put plainly: Tubulin polymerization inhibitory activity using bovine brain tubulin. The format is functional.
Conditions: not given
Compound `COc1ccc(-c2scnc2-c2cc(OC)c(OC)c(OC)c2)cc1N` had an IC50 of 3 µM.

Consider `COc1ccc(-c2nncn2-c2cc(OC)c(OC)c(OC)c2)cc1N`, for which the IC50 is 4 µM.

`COc1ccc(-c2sc(C)nc2-c2cc(OC)c(OC)c(OC)c2)cc1N`: the IC50 is 2 µM.

`COc1ccc(-c2nnc(O)n2-c2cc(OC)c(OC)c(OC)c2)cc1N`: the half-inhibitory concentration (IC50) is more than 10 µM.

Take `COc1ccc(-c2nnnn2-c2cc(OC)c(OC)c(OC)c2)cc1N`: the IC50 amounted to 2 µM.

For `COc1ccc(-c2sc(N)nc2-c2cc(OC)c(OC)c(OC)c2)cc1N`, the IC50 turned out to be 1 µM.

Compound `COc1ccc(-c2c([Si](C)(C)C)n[nH]c2-c2cc(OC)c(OC)c(OC)c2)cc1N` had an IC50 of more than 10 µM.

Compound `COc1ccc(-c2nnc(C)n2-c2cc(OC)c(OC)c(OC)c2)cc1N` gave an IC50 of more than 10 µM.

Compound `COc1ccc(-c2nnc(N)n2-c2cc(OC)c(OC)c(OC)c2)cc1N` showed an IC50 of more than 10 µM.

`COc1ccc(-c2sc(NN)nc2-c2cc(OC)c(OC)c(OC)c2)cc1N` showed an IC50 of 3 µM.

Compound `COc1ccc(-c2c[nH]nc2-c2cc(OC)c(OC)c(OC)c2)cc1N` returned a concentration for half-maximal inhibition (IC50) of 3 µM.

The subject of another experiment is Colon 26. Briefly: […] activity evaluated as tumor suppression against colon 26 murine tumor model at a dose 20 mg/kg after intravenous administration. The experiment is classed as functional, Mus musculus.
Conditions: not given
The compound `COc1ccc(-c2c[nH]nc2-c2cc(OC)c(OC)c(OC)c2)cc1N` came in with an IR of 0%.

The test system of another experiment is Colon 26. Put plainly: […] activity evaluated as tumor suppression against colon 26 murine tumor model at a dose 80 mg/kg after intravenous administration. The experiment is classed as functional, Mus musculus.
Conditions: not given
With `COc1ccc(-c2sc(NN)nc2-c2cc(OC)c(OC)c(OC)c2)cc1N`, the IR is 55%.

The values above are taken from ChEMBL document CHEMBL1130664, “Syntheses and antitumor activity of cis-restricted combretastatins: 5-membered heterocyclic analogues” (Bioorg Med Chem Lett, 1998).
